This note sets out measurements from patent US20170362228A1, “TETRAHYDRO-PYRIDO[3,4-b]INDOLE ESTROGEN RECEPTOR MODULATORS AND USES THEREOF” (Genentech, Inc., priority 2016, published 2017).

One may read the EC50 as the concentration needed to bring the measured effect to its halfway point.

The test system of one test is MCF7 cells. The test is described as follows: In vitro cell proliferation assays (Examples 902 and 903), MCF7. As to conditions: Homo sapiens. The class given is cell-based. On the procedure:
Efficacy of estrogen receptor modulator compounds and chemotherapeutic compounds are measured by a cell proliferation assay employing the following protocol (Mendoza et al (2002) Cancer Res. 62:5485-5488).
The CellTiter-Glo® Luminescent Cell Viability Assay is a homogeneous method to determine the number of viable cells in culture based on quantitation of the ATP present, which signals the presence of metabolically active cells. The CellTiter-Glo® Assay is designed for use with multiwell plate formats, making it ideal for automated high-throughput screening (HTS), cell proliferation and cytotoxicity assays. The homogeneous assay procedure involves adding a single reagent (CellTiter-Glo® Reagent) directly to cells cultured in serum-supplemented medium. Cell washing, removal of medium or multiple pipetting steps are not required. The Cell Titer-Glo® Luminescent Cell Viability Assay, including reagents and protocol are commercially available (Promega Corp., Madison, Wis., Technical Bulletin TB288).
The assay assesses the ability of compounds to enter cells and inhibit cell proliferation. The assay principle is based on the determination of the number of viable cells present by quantitating the ATP present in a homogenous assay where addition of the Cell TiterGlo® reagent results in cell lysis and generation of a luminescent signal through the luciferase reaction. The luminescent signal is proportional to the amount of ATP present.
Procedure: Day 1—Seed Cell Plates (384-well black, clear bottom, microclear, TC plates with lid from Falcon #353962), Harvest cells, Seed cells at 1000 cells per 54 μl per well into 384 well Cell Plates for 3 days assay. Cell Culture Medium: RPMI or DMEM high glucose, 10% Fetal Bovine Serum, 2 mM L-Glutamine, P/S. Incubate 0/N (overnight) at 37° C., 5% CO2.
Day 2—Add Drug to Cells, Compound Dilution, DMSO Plates (serial 1:2 for 9 points). Add 20 μl of compound at 10 mM in the 2nd column of 96 well plate. Perform serial 1:2 across the plate (10 μl+20 μl 100% DMSO) for a total of 9 points using Precision Media Plates 96-well conical bottom polypropylene plates from Nunc (cat.#249946) (1:50 dilution). Add 147 μl of Media into all wells. Transfer 3 μl of DMSO+compound from each well in the DMSO Plate to each corresponding well on Media Plate using Rapidplate® (Caliper, a Perkin-Elmer Co.). For 2 drug combination studies, transfer one drug 1.5 μl of DMSO+compound from each well in the DMSO Plate to each corresponding well on Media Plate using Rapidplate. Then, transfer another drug 1.5 μl to the medium plate.
Drug Addition to Cells, Cell Plate (1:10 dilution): Add 6 μl of media+compound directly to cells (54 μl of media on the cells already). Incubate 3 days at 37° C., 5% CO2 in an incubator that will not be opened often.
Day 5—Develop Plates, Thaw Cell Titer Glo Buffer at room temperature: Remove Cell Plates from 37° C. and equilibrate to room temperature for about 30 minutes. Add Cell Titer-Glo® Buffer to Cell Titer-Glo® Substrate (bottle to bottle). Add 30 μl Cell Titer-Glo® Reagent (Promega cat.# G7572) to each well of cells. Place on plate shaker for about 30 minutes. Read luminescence on Analyst HT Plate Reader (half second per well).
Cell viability assays and combination assays: Cells were seeded at 1000-2000 cells/well in 384-well plates for 16 h. On day two, nine serial 1:2 compound dilutions were made in DMSO in a 96 well plate. The compounds were further diluted into growth media using a Rapidplate® robot (Zymark Corp., Hopkinton, Mass.). The diluted compounds were then added to quadruplicate wells in 384-well cell plates and incubated at 37° C. and 5% CO2. After 4 days, relative numbers of viable cells were measured by luminescence using Cell Titer-Glo® (Promega) according to the manufacturer's instructions and read on a Wallac Multilabel Reader® (PerkinElmer, Foster City). EC50 values were calculated using Prism® 4.0 software (GraphPad, San Diego). […]

The target of test [1] is T1, estrogen receptor alpha (ESR1) (Homo sapiens, UniProt P03372).
T1 construct: endogenous in cells; host or cells: MCF7 breast cancer cells
T1 sequence (P03372 1-595): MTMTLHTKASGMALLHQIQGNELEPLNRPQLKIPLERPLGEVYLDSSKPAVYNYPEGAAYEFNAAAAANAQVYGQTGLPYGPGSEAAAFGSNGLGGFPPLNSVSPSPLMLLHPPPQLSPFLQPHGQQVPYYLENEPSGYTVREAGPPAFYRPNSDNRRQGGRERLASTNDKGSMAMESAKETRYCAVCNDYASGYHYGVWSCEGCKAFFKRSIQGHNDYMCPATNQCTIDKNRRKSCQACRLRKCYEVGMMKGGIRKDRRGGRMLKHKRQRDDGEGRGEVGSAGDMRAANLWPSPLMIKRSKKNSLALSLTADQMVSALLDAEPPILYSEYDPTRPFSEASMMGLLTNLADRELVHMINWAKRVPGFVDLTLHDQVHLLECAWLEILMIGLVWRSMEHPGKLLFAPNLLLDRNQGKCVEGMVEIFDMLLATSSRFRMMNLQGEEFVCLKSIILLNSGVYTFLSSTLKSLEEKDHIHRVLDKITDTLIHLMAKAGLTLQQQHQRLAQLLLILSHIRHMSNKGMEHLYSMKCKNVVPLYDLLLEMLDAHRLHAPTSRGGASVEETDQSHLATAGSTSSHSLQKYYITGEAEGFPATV
The test is described as follows: Breast Cancer Cell ERa High Content Fluorescence Imaging Degradation Assay (Example 901). As to conditions: Table 1a; MCF7 breast cancer cells, 4 hours; plateau of the maximal effect; DMSO and Fulvestrant define 0% and 100% changes in ESR1. Type of test: cell-based. The protocol: MCF7 breast cancer cells were seeded on day 1 at a density of 10,000 cells per well in 384 well poly-lysine coated tissue culture plate (Greiner # T-3101-4), in 50 μL/well RPMI (phenol red free), 10% FBS (Charcoal stripped), containing L-glutamine. On day 2, compounds were prepared at 2 compound source concentrations: 100 μM and 1 μM (ultimately to give 2 overlapping titration curves), in a Labcyte low dead volume plate, 10 μL/well, and 10 μL of DMSO in designated wells for backfill, and 5 μM Fulvestrant (control compound) in designated wells. Compounds and controls were dispensed using a Labcyte Echo acoustic dispenser to dispense compounds with a predefined serial dilution (1.8×, 10 point, in duplicate) and appropriate backfill and control compounds (final total volume transferred was 417.5 nL and compound dispense volume ranges from 2.5 nL to 417.5 nL; 0.84% DMSO (v/v) final), ultimately producing a concentration range from 0.05 nM to 835 nM. Cell plates were incubated at 37° C., for 4 hours. Fixation and permeabilization were carried out using a Biotek EL406 plate washer and dispenser as follows. Cells were fixed by addition of 15 μL of 16% paraformaldehyde (Electron Microscopy Sciences #15710-S) directly to the 50 μL cell culture medium in each well using the peristaltic pump 5 μL cassette on a Biotek EL406 (final concentration of formaldehyde was 3.7% w/v). Samples were incubated 30 minutes. Well contents was aspirated and 50 μL/well of Phosphate Buffered Saline (PBS) containing 0.5% w/v bovine serum albumen, 0.5% v/v Triton X-100 (Antibody Dilution Buffer) was added to each well. Samples were incubated for 30 minutes. Well contents were aspirated and washed 3 times with 100 μL/well of PBS. Immunofluorescence staining of estrogen receptor alpha (ESR1) was carried out using a Biotek EL406 plate washer and dispenser as follows. The well supernatant was aspirated from the wells and 25 μL/well of anti-ESR1 mAb (F10) (Santa Cruz sc-8002) diluted 1:1000 in Antibody Dilution Buffer was dispensed. Samples were incubated for 2 hours at room temperature. Samples were washed 4 times with 100 μL/well of PBS. 25 uL/well of secondary antibody solution (Alexafluor 488 conjugate anti-mouse IgG (LifeTechnologies #A21202) diluted 1:1000 and Hoechst 33342 1 μg/ml diluted in Antibody Dilution Buffer) were dispensed into each well. Samples were incubated for 2 hours at room temperature. Samples were washed 3 times with 100 μL/well of PBS using a Biotek EL406. Quantitative fluorescence imaging of ESR1 was carried out using a Cellomics Arrayscan V (Thermo). Fluorescence images of the samples (Channel 1: XF53 Hoechst (DNA stain); Channel 2: XF53 FITC (ESR1 stain)) were acquired using a Cellomics VTI Arrayscan using the Bioapplication “Compartmental Analysis” using the auto-exposure (based on DMSO control wells) setting “peak target percentile” set to 25% target saturation for both channels. Channel 1 (DNA stain) was used to define the nuclear region (Circ). Measurements of “Mean_CircAvgIntCh2”, which is the Alexafluor 488 fluorescence intensity (ESR1) within the nuclear region, was measured on a per cell basis and averaged over all the measured cells. Data analysis was carried out using Genedata Screener Software, with DMSO and 5 nM Fulvestrant treated samples being used to define the 0% and 100% changes in ESR1. The “Robust Fit” method was used to define the inflexion point of curve (EC50) and the plateau of the maximal effect (Sinf). Degradation data for exemplary Formula I compounds is reported as ER-alpha MCF7 HCS Sinf(%) values in Table 1.

Where [2] appears, read: MCF7, Table 1a, read-out: ER-alpha MCF7 HCS (EC50).
The mark [3] stands for this setting: MCF7, Table 2, Comparator compounds, read-out: ER-alpha MCF7 HCS EC50.

Where two headings read alike, the source gives them in different places.

Regarding `C[C@@H]1Cc2c([nH]c3ccccc23)[C@@H](c2c(F)cc([C@@H](F)C3CN(CCCF)C3)cc2F)N1CC(F)(F)CO` (single isomer, unassigned) [Compound 104], in the test with MCF7 cells (setting [2]), the EC50 was 0.017 nM. Moreover, the “ER-alpha MCF7 HCS (S inf)” value in test [1] is reported as −99.99%.

Take `C[C@@H]1Cc2c([nH]c3ccccc23)[C@@H](c2c(F)cc([C@H](F)C3CN(CCCF)C3)cc2F)N1CC(F)(F)CO` (single isomer, unassigned) [Compound 105]: the EC50 in the test with MCF7 cells (setting [2]) came to 0.021 nM. Besides, the “ER-alpha MCF7 HCS (S inf)” value in test [1] is recorded as −97.71%.

On to `C[C@@H]1Cc2c([nH]c3ccc(F)cc23)[C@@H](c2c(F)cc([C@H](O)C3CN(CCCF)C3)cc2F)N1CC(F)(F)CO` (single isomer, unassigned) [Compound 114], for which, in the test on MCF7 cells (setting [2]), the EC50 turned out to be 0.035 nM. Besides, the “ER-alpha MCF7 HCS (S inf)” value in test [1] is −100.60%.

With `C[C@@H]1Cc2c([nH]c3ccc(F)cc23)[C@@H](c2c(F)cc([C@@H](O)C3CN(CCCF)C3)cc2F)N1CC(F)(F)CO` (single isomer, unassigned) [Compound 115], in the test on MCF7 cells (setting [2]), the EC50 turned out to be 0.065 nM. In test [1], the “ER-alpha MCF7 HCS (S inf)” value is on record as −100.58%.

With `C[C@@H]1Cc2c([nH]c3ccccc23)[C@@H](c2c(F)cc([C@H](O)C3CN(CCCF)C3)cc2F)N1CC(F)F` (single isomer, unassigned) [Compound 121], the EC50 in the test with MCF7 cells (setting [2]) was found to be 0.068 nM. Moreover, in test [1], the “ER-alpha MCF7 HCS (S inf)” value was −98.21%.

For `C[C@@H]1Cc2c([nH]c3ccccc23)[C@@H](c2c(F)cc([C@@H](O)C3CN(CCCF)C3)cc2F)N1CC(F)F` (single isomer, unassigned) [Compound 122], in the test on MCF7 cells (setting [2]), the EC50 was 0.035 nM. The “ER-alpha MCF7 HCS (S inf)” value in test [1] is given as −98.05%.

Consider `C[C@H]1Cc2c([nH]c3c(F)cccc23)[C@H](c2c(F)cc([C@H](O)C3CN(CCCF)C3)cc2F)N1CC(F)(F)CO` (single isomer, unassigned) [Compound 131], for which, in the test with MCF7 cells (setting [2]), the EC50 came to 7.64 nM. In addition, the “ER-alpha MCF7 HCS (S inf)” value in test [1] is given as −95.59%.

Consider `C[C@@H]1Cc2c([nH]c3ccccc23)[C@@H](c2c(F)cc([C@@H](O)C3CN(CCCF)C3)cc2F)N1C[C@H](F)CO` (single isomer, unassigned) [Compound 139], for which the EC50 in the test on MCF7 cells (setting [2]) was found to be 0.31 nM.

Turning to `C[C@@H]1Cc2c([nH]c3ccccc23)[C@@H](c2c(F)cc(NC3CN(CCCF)C3)cc2F)N1CC(F)(F)CO` [Comparator compound A, 3-[(1R,3R)-1-[2,6-difluoro-4-[[1-(3-fluoropropyl)azetidin-3-yl]amino]phenyl]-3-methyl-1,3,4,9-tetrahydropyrido[3,4-b]indol-2-yl]-2,2-difluoro-propan-1-ol, reference compound], the EC50 with MCF7 cells (setting [3]) worked out at 0.027 nM.

In the case of `C[C@@H]1Cc2c([nH]c3ccccc23)[C@@H](c2ccc([C@@H](O)C3CN(CCCF)C3)cc2)N1CC(C)(C)F` [Comparator compound B, (S)-(4-((1R,3R)-2-(2-fluoro-2-methylpropyl)-3-methyl-2,3,4,9-tetrahydro-1H-pyrido[3,4-b]indol-1-yl)phenyl)(1-(3-fluoropropyl)azetidin-3-yl)methanol, reference compound], the EC50 with MCF7 cells (setting [3]) was 0.065 nM.

Regarding `C[C@@H]1Cc2c([nH]c3ccccc23)[C@@H](c2ccc([C@H](O)C3CN(CCCF)C3)cc2)N1CC(C)(C)F` [Comparator compound C, (R)-(4-((1R,3R)-2-(2-fluoro-2-methylpropyl)-3-methyl-2,3,4,9-tetrahydro-1H-pyrido[3,4-b]indol-1-yl)phenyl)(1-(3-fluoropropyl)azetidin-3-yl)methanol, reference compound], the EC50 in the test on MCF7 cells (setting [3]) was 0.12 nM.

`C[C@@H]1Cc2c([nH]c3ccccc23)[C@@H](c2c(F)cc([C@@H](F)C3CN(CCCF)C3)cc2F)N1CC(C)(C)F` [Compound 102, (1R,3R)-1-(2,6-difluoro-4-((S)-fluoro(1-(3-fluoropropyl)azetidin-3-yl)methyl)phenyl)-2-(2-fluoro-2-methylpropyl)-3-methyl-2,3,4,9-tetrahydro-1H-pyrido[3,4-b]indole]: the EC50 in the test on MCF7 cells (setting [2]) was 0.137 nM.
